Reference: article PMC7418971 (PLoS Pathogens, 2020)
Like-named read-outs stand apart in the source and are kept apart here.

Legend:
[1] = system: A/England/195/2009 (E195) influenza A virus; assay: microbe, parasite or virus in culture; type: cell-based; conditions: for IC50: read-out: Virus culture IC50
[2] = system: M2-N31 and M2-S31 CD peptides; type: biochemical, Influenza A/England/195/2009 (H1N1)
Eng195 in MDCK culture = type: cell-based, influenza A virus
[3] = system: Eng195 M2-N31 TM/CD peptides; type: biochemical
H1N1 WSN virus = conditions: read-out: EC50 in antiviral plaque assay; cited from earlier work

Structure (SMILES) | antiviral effect versus Eng195 in culture [1] | Virus culture Fold Titre Reduction (80 µM) [1] [x] | IC50 ([1]; Influenza A virus, MDCK) [µM] | combination effect with M2WJ332 (Eng195 in MDCK culture) | TM/CD peptide preference in titration [3] | other results
CN1CCN(C(=O)c2ccc3ccccc3c2)CC1 [B] | neither B nor K exhibited antiviral effects | – | – | – | – | –
CCCCCCCCCN1C[C@H](O)[C@@H](O)[C@H](O)[C@H]1CO [NNDNJ, reference compound] | antiviral effects | – | – | – | – | effect on M2 oligomerisation [2]: disrupted oligomerisation
Cc1ccc2nc(Oc3ccccc3)ccc2c1 [DP9] | – | 100 | 25 to 50 | synergistic | preferential inhibition of CD peptides | IC50 [1]: > 25 µM
c1csc(-c2cc(CNC34CC5CC(CC(C5)C3)C4)no2)c1 [M2WJ332, (3S,5S,7S)-N-{[5-(thiophen-2-yl)-1,2-oxazol-3-yl]methyl}tricycle[3.3.1.1~3,7~]decan-1-aminium, reference compound] | – | 100 | 1.18 | – | – | reduction in virus titre [1]: 1–2 log10; IC50 [1]: 1.18 µM; EC50 (H1N1 WSN virus): 0.153 µM
O=C(Nc1nnc[nH]1)c1cc2ccccc2o1 [K] | neither B nor K exhibited antiviral effects | – | – | – | – | –
c1cc2nc(C34CC5CC(CC(C5)C3)C4)[nH]c2cn1 [D] | antiviral effects | – | – | – | – | –
OCCNC12CC3CC(CC(C3)C1)C2 [J] | antiviral effects | – | – | – | – | –
Cc1ncc(C23CC4CC(CC(C4)C2)C3)[nH]1 [H] | antiviral effects | – | – | – | – | –
Cc1c2ccccc2n2cc(-c3ccccc3)nc(C(C)C)c12 [DL7] | – | 100 | 1.48 | antagonism | preference for CD peptides but with activity versus TM at higher concentrations | combination effect with L1.1 (Eng195 in MDCK culture): antagonism
COc1ccccc1NC(=S)NC(=O)c1cc2ccccc2cc1OC [L1.1] | – | 1000 | 1.33 | synergistic | equivalent activity versus both TM/CD | reduction in virus titre [1]: ~3 log10; combination effect with Zanamivir (Eng195 in MDCK culture): synergistic
